This note sets out measurements from ChEMBL document CHEMBL5505956, “Plant-derived strategies to fight against severe acute respiratory syndrome coronavirus 2” (Eur J Med Chem, 2024).

In brackets after ≈: the same amount, converted by molar mass.

Test [1] deals with SARS-CoV-2. Put plainly: Antiviral activity against SARS-CoV-2 infected in African green monkey Vero E6 cells assessed as inhibition of viral growth incubated for 24 hrs by qRT-PCR analysis. It is filed as functional, organism-based. Particulars: Severe acute respiratory syndrome coronavirus 2, Vero C1008, 24 h.
The target in test [2] is Replicase polyprotein 1ab (Severe acute respiratory syndrome coronavirus 2, UniProt P0DTD1).
Description: Inhibition of SARS CoV-2 main protease
The subject of test [3] is SARS-CoV-2. Put plainly: Antiviral activity against SARS-CoV-2 infected in african green monkey Vero E6 cells assessed as reduction in viral replication. The format is functional, organism-based. The note with it: Severe acute respiratory syndrome coronavirus 2, Vero C1008.
In test [4] the test system is SARS-CoV-2. The test can be described thus: Antiviral activity against SARS-CoV-2 infected in human Calu-3 cells assessed as reduction in viral replication incubated for 48 hrs by RT-PCR. It is filed as functional, organism-based. The note with it: Severe acute respiratory syndrome coronavirus 2, Calu-3, 48 h.
Test [5] relates to SARS-CoV-2. Put plainly: Antiviral activity against SARS-CoV-2 infected in african green monkey Vero E6 cells assessed as reduction in viral growth measured for 2 days by qRT-PCR. Particulars: Severe acute respiratory syndrome coronavirus 2, Vero C1008, 48 h. It is filed as functional, organism-based.
The subject of test [6] is SARS-CoV-2. The test can be described thus: Antiviral activity against SARS-CoV-2 infected in African green monkey Vero E6 cells assessed as reduction in viral replication measured after 3 days by qRT-PCR analysis. The format is functional, organism-based. The note with it: Severe acute respiratory syndrome coronavirus 2, Vero C1008, 72 h.
Test [7] has as its system SARS-CoV-2. The test can be described thus: Antiviral activity against SARS-CoV-2 infected in human A549-ACE2 cells assessed as viral growth inhibition. The format is functional, organism-based. Particulars: Severe acute respiratory syndrome coronavirus 2, A549-ACE2.
Test [8] deals with SARS-CoV-2. The test can be described thus: Antiviral activity against SARS-CoV-2 infected in monkey Vero E6 cells assessed as inhibition of […]. The format is functional, organism-based. The note with it: Severe acute respiratory syndrome coronavirus 2, Vero C1008.

Turning to `C[C@@H]1CC[C@H]2[C@@H](C)C(=O)O[C@@H]3O[C@@]4(C)CC[C@@H]1[C@]32OO4` [ARTEMISININ], the EC50 with SARS-CoV-2 [1] came to 10.3 µM. On to `COc1ccc2cc1Oc1ccc(cc1)C[C@H]1c3c(cc4c(c3Oc3cc5c(cc3OC)CCN(C)[C@@H]5C2)OCO4)CCN1C` [CEPHARANTHINE], for which, in test [2], the IC50 came to 0.1 µM. In the case of `O=C(O[C@@H]1O[C@@H]2COC(=O)c3cc(O)c(O)c(O)c3-c3c(cc(O)c(O)c3O)C(=O)O[C@H]([C@H]1O)[C@@H]2O)c1cc(O)c(O)c(O)c1` [CORILAGIN], the EC50 with SARS-CoV-2 [3] is 0.13 µM. Take `COc1cc(/C=C/C(=O)CC(=O)/C=C/c2ccc(O)c(OC)c2)ccc1O` [CURCUMIN]: the EC50 in the test on SARS-CoV-2 [4] and in the test on SARS-CoV-2 [5] was 38 µM throughout. Regarding `O=C(O[C@@H]1Cc2c(O)cc(O)cc2O[C@@H]1c1cc(O)c(O)c(O)c1)c1cc(O)c(O)c(O)c1` [EPIGALOCATECHIN GALLATE], in the test with SARS-CoV-2 [6], the EC50 came out at 10 µM.

In the case of `CC1(C)[C@@H](O[C@H]2O[C@H](C(=O)O)[C@@H](O)[C@H](O)[C@H]2O[C@@H]2O[C@H](C(=O)O)[C@@H](O)[C@H](O)[C@H]2O)CC[C@]2(C)[C@H]3C(=O)C=C4[C@@H]5C[C@@](C)(C(=O)O)CC[C@]5(C)CC[C@@]4(C)[C@]3(C)CC[C@@H]12` [GLYCYRRHIZIN], the EC50 in the test with SARS-CoV-2 [7] was 0.44 µg/mL (≈ 0.535 µM). As for `O=c1c(O)c(-c2cc(O)c(O)c(O)c2)oc2cc(O)cc(O)c12` [MYRICETIN], in the test on SARS-CoV-2 [8], the EC50 was found to be 8 µM. Consider `Cc1ccc(C(=O)Nc2ccc(S(=O)(=O)O)c3cc(S(=O)(=O)O)cc(S(=O)(=O)O)c23)cc1NC(=O)c1cccc(NC(=O)Nc2cccc(C(=O)Nc3cc(C(=O)Nc4ccc(S(=O)(=O)O)c5cc(S(=O)(=O)O)cc(S(=O)(=O)O)c45)ccc3C)c2)c1` [SURAMIN], for which, in the test on SARS-CoV-2 [3], the half-maximal effective concentration (EC50) was 2.93 µM.
